# Biological target: recombinant human SYK (GST-hSYK fusion protein) (Homo sapiens (Human), UniProt P43405)
# Conditions: read-out: rhSYK Activity; Table 21
# Description: Homogeneous Time-Resolved Fluorescence (HTRF) Assay for the Recombinant Human SYK Enzyme:
row,IC50 [nM],Structure (SMILES)
1,< 100,O=C(NC1CC1)C1CCC(c2ncc(-c3cccc(Nc4nccc(C(F)(F)F)n4)c3)s2)CC1 (stereo not drawn) [Example 21-13]

# Same assay, conditions: read-out: rhSYK Activity; Table 26
row,IC50 [nM],Structure (SMILES)
1,1000 to 10000,CCOC(=O)C1CCC(F)(c2ncc(-c3cccc(Nc4nccc(C(F)(F)F)n4)c3)s2)CC1 (stereo not drawn) [Example 26-5]
2,100 to 1000,CCOC(=O)C1CCC(F)(c2ncc(-c3cccc(Nc4nccc(C(F)(F)F)n4)c3)s2)CC1 (stereo not drawn) [Example 26-4]
3,< 100,Cc1cc(Nc2nccc(C(F)(F)F)n2)cc(-c2cnc(C3(F)CCC(C(=O)O)CC3)s2)c1 (stereo not drawn) [Example 26-1]
4,< 100,O=C(O)C1CCC(F)(c2ncc(-c3cccc(Nc4nccc(C(F)(F)F)n4)c3)s2)CC1 (stereo not drawn) [Example 25-6]

# Same assay, conditions: read-out: rhSYK Activity; Table 33-A
row,IC50 [nM],Structure (SMILES)
1,< 100,Cc1cc(Nc2ncc(F)c(C3CC3)n2)cc(-c2cnc(C3(O)CCC(C(=O)O)CC3)s2)c1 (stereo not drawn) [33A-1]
2,< 100,Cc1cc(Nc2ncc(F)c(C)n2)cc(-c2cnc(C3(O)CCC(C(=O)O)C(C)(C)C3C)s2)c1 (stereo not drawn) [33A-74]
3,< 100,CCOC(=O)C1(C)CCC(O)(c2ncc(-c3cc(C)cc(Nc4nccc(C(F)(F)F)n4)c3)s2)CC1 (stereo not drawn) [33A-10]

# Same assay, conditions: read-out: rhSYK Activity; Table 33B
row,IC50 [nM],Structure (SMILES)
1,< 100,"Cc1cc(Nc2nccc(C(F)(F)F)n2)cc(-c2cnc(C3(O)CCC(C(=O)O)C(C)C3C)s2)c1 (single isomer, unassigned) [Example 33B-39]"
2,< 100,"CCC1C(C)C(C(=O)O)CCC1(O)c1ncc(-c2cc(C)cc(Nc3nccc(C(F)(F)F)n3)c2)s1 (single isomer, unassigned) [Example 33B-42]"

# The remaining lines, values behind:
row,Structure (SMILES),IC50 [nM]
1,COC1CC(O)(c2ncc(-c3cc(C)cc(Nc4nccc(C(F)(F)F)n4)c3)s2)CCC1C(=O)O (stereo not drawn) [Example 33B-13],< 100
2,"Cc1cc(Nc2nccc(C(F)(F)F)n2)cc(-c2cnc(C3(O)CCCC(c4ccc(C(=O)O)cc4)C3)s2)c1 (single isomer, unassigned) [Example 33B-16]",< 100
3,Cc1cc(Nc2nccc(C)n2)cc(-c2cnc(C3(O)CCC(C(=O)O)C(c4ccccc4C)C3)s2)c1 (stereo not drawn) [Example 33B-29],< 100
4,"CCC1C(C)C(C(=O)O)CCC1(O)c1ncc(-c2cc(C)cc(Nc3nccc(C(F)(F)F)n3)c2)s1 (single isomer, unassigned) [Example 33B-41]",< 100
5,"Cc1cc(Nc2nccc(C(F)(F)F)n2)cc(-c2cnc(C3(O)CC(C(=O)O)C(C)(C)C3)s2)c1 (single isomer, unassigned) [Example 33B-7]",< 100
6,Cc1cc(Nc2nccc(C(F)(F)F)n2)cc(-c2cnc(C3(O)CC(C(=O)O)C(C)(C)C3)s2)c1 (stereo not drawn) [Example 33B-3],< 100
7,CCC1C(C)C(C(=O)O)CCC1(O)c1ncc(-c2cc(C)cc(Nc3nccc(C(F)(F)F)n3)c2)s1 (stereo not drawn) [Example 33B-40],< 100

# Same assay, conditions: read-out: rhSYK Activity; Table 33D
row,IC50 [nM],Structure (SMILES)
1,< 100,Cc1cc(Nc2nccc(C(F)(F)F)n2)cc(-c2cnc(C(C)(O)/C=C/C(C)(C)C(=O)O)s2)c1 (stereo not drawn) [Example 33D-5]

# Same assay, conditions: read-out: rhSYK Activity; Table 36A
row,IC50 [nM],Structure (SMILES)
1,100 to 1000,CCOC(=O)C1CCC(c2ncc(-c3cc(C)cc(Nc4nccc(C(F)(F)F)n4)c3)s2)CC1 (stereo not drawn) [Example 36A-2]
2,< 100,O=C(O)C1CCC(c2ncc(-c3cccc(Nc4nccc(C(F)(F)F)n4)c3)s2)CC1 (stereo not drawn) [Example 36A-4]

# Same assay, conditions: read-out: rhSYK Activity; Table 113A
row,IC50 [nM],Structure (SMILES)
1,< 100,COc1ccnc(Nc2cc(C)cc(-c3cnc([C@]4(O)CC[C@@H](C(=O)O)[C@@H](C)C4)s3)c2)n1 [Example 113A-17]
2,< 100,Cc1cc(Nc2ncc(F)c(C)n2)cc(-c2cnc([C@@]3(O)CC[C@H](C(=O)O)[C@H](C)C3)s2)c1 [Example 113A-18]
3,< 100,COC(=O)[C@H]1CC[C@](O)(c2ncc(-c3cc(C)cc(Nc4nccc(C(F)(F)F)n4)c3)s2)CC1(C)C [Example 113A-65]

# Same assay, conditions: read-out: rhSYK Activity; Table 113C
row,IC50 [nM],Structure (SMILES)
1,100 to 1000,"Cc1cc(Nc2nccc(C(C)C)n2)cc(-c2cnc(C3(O)CCCN(C(=O)OC(C)(C)C)CC3)s2)c1 (single isomer, unassigned) [113C-20]"
2,< 100,"COc1nc(Nc2cc(C)cc(-c3cnc(C4(O)CCCNCC4)s3)c2)ncc1Cl (single isomer, unassigned) [113C-15]"
3,< 100,COc1nc(Nc2cc(C)cc(-c3cnc(C4(O)CCNC(=O)CC4)s3)c2)ncc1Cl (stereo not drawn) [113C-11]
4,< 100,"Cc1cc(Nc2nccc(C(C)F)n2)cc(-c2cnc(C3(O)CCNC(=O)CC3)s2)c1 (single isomer, unassigned) [113C-3]"
5,< 100,Cc1cc(Nc2nccc(C3CC3)n2)cc(-c2cnc(C3(O)CCCNCC3)s2)c1 (stereo not drawn) [113C-13]
6,< 100,"COc1nc(Nc2cc(C)cc(-c3cnc(C4(O)CCCNCC4)s3)c2)ncc1Cl (single isomer, unassigned) [113C-16]"

# Continued, compound first:
row,Structure (SMILES),IC50 [nM]
1,Cc1cc(Nc2nccc(OC(C)C)n2)cc(-c2cnc(C3(O)CCNC(=O)CC3)s2)c1 (stereo not drawn) [113C-10],< 100
2,Cc1cc(Nc2nccc(-c3cccs3)n2)cc(-c2cnc(C3(O)CCNC(=O)CC3)s2)c1 (stereo not drawn) [113C-12],< 100
3,Cc1cc(Nc2nccc(C(F)F)n2)cc(-c2cnc(C3(O)CCNC(=O)CC3)s2)c1 (stereo not drawn) [113C-7],< 100
4,"Cc1cc(Nc2nccc(C3CC3)n2)cc(-c2cnc(C3(O)CCCN(C(=O)OC(C)(C)C)CC3)s2)c1 (single isomer, unassigned) [113C-18]",100 to 1000
5,"Cc1cc(Nc2nccc(C(C)F)n2)cc(-c2cnc(C3(O)CCNC(=O)CC3)s2)c1 (single isomer, unassigned) [113C-4]",< 100

# Same assay, conditions: read-out: rhSYK Activity; Table 113D, lower part (Structure)
row,IC50 [nM],Structure (SMILES)
1,< 100,"Cc1cc(Nc2nccc(C(F)(F)F)n2)cc(-c2cnc(C3(O)CCC(C(=O)O)OC3)s2)c1 (single isomer, unassigned) [Example 113D-12]"
2,< 100,"Cc1cc(Nc2nccc(C(F)(F)F)n2)cc(-c2cnc(C3(O)CCC(C(=O)O)OC3)s2)c1 (single isomer, unassigned) [Example 113D-11]"

# Same assay, conditions: read-out: rhSYK Activity; Table 116A
row,IC50 [nM],Structure (SMILES)
1,< 100,COc1ccc(Cn2cc(-c3ccnc(Nc4cc(C)cc(-c5cnc(C6(O)CCC(C(=O)O)CC6)s5)c4)n3)nn2)cc1 (stereo not drawn) [116A-17]

# Same assay, conditions: read-out: rhSYK Activity; Table 117; HTRF assay, IC50 class symbols
row,IC50 [nM],Structure (SMILES)
1,< 100,Cc1cc(Nc2nccc(C(F)(F)F)n2)cc(-c2cnc(C3(O)CCC(C)(C(N)=O)CC3)s2)c1 (stereo not drawn) [Example 117-3]

# Same assay, conditions: read-out: rhSYK Activity; Table 119; HTRF assay, IC50 class symbols
row,IC50 [nM],Structure (SMILES)
1,< 100,Cc1cc(Nc2nccc(C(F)(F)F)n2)cc(-c2cnc(C3(O)CCC(C(=O)NCc4ccno4)CC3)s2)c1 (stereo not drawn) [Example 119-43]
2,< 100,Cc1cc(Nc2nccc(C(F)(F)F)n2)cc(-c2cnc(C3(O)CCC(C(=O)NCc4cc(O)no4)CC3)s2)c1 (stereo not drawn) [Example 119-65]
3,< 100,Cc1cc(Nc2nccc(C(F)(F)F)n2)cc(-c2cnc(C3(O)CCC(C(=O)NCc4ncc[nH]4)CC3)s2)c1 (stereo not drawn) [Example 119-38]

# Further lines, the compound ahead of its results:
row,Structure (SMILES),IC50 [nM]
1,Cc1cc(Nc2nccc(C(F)(F)F)n2)cc(-c2cnc(C3(O)CCC(C(=O)NCc4cccnn4)CC3)s2)c1 (stereo not drawn) [Example 119-58],< 100
2,Cc1cc(Nc2nccc(C(F)(F)F)n2)cc(-c2cnc(C3(O)CCC(C(=O)NCc4cccc5c4CNC5=O)CC3)s2)c1 (stereo not drawn) [Example 119-98],< 100
3,Cc1cc(Nc2nccc(C(F)(F)F)n2)cc(-c2cnc(C3(O)CCC(C(=O)NCc4nncs4)CC3)s2)c1 (stereo not drawn) [Example 119-67],< 100
4,Cc1cc(Nc2nccc(C(F)(F)F)n2)cc(-c2cnc(C3(O)CCC(C(=O)NCCN4CCOCC4)CC3)s2)c1 (stereo not drawn) [Example 119-80],< 100
5,Cc1cc(Nc2nccc(C(F)(F)F)n2)cc(-c2cnc(C3(O)CCC(C(=O)NCc4ccc(CO)cc4)CC3)s2)c1 (stereo not drawn) [Example 119-85],< 100
6,Cc1cc(Nc2nccc(C(F)(F)F)n2)cc(-c2cnc(C3(O)CCC(C(=O)N4CCC5(CC4)OCCO5)CC3)s2)c1 (stereo not drawn) [Example 119-140],< 100
7,Cc1cc(Nc2nccc(C(F)(F)F)n2)cc(-c2cnc(C3(O)CCC(C(=O)NCCN4CCCC4=O)CC3)s2)c1 (stereo not drawn) [Example 119-78],< 100
8,Cc1cc(Nc2nccc(C(F)(F)F)n2)cc(-c2cnc(C3(O)CCC(C(=O)NCc4cnoc4)CC3)s2)c1 (stereo not drawn) [Example 119-41],< 100

# Same assay, conditions: read-out: rhSYK Activity; recombinant human SYK, HTRF assay; class symbols
row,IC50 [nM],Structure (SMILES)
1,< 100,Cc1cc(Nc2nccc(C(C)C)n2)cc(-c2cnc(C3(O)CCCN(C(=O)c4nnnn4C)CC3)s2)c1 (stereo not drawn) [Example 54D-18]
2,< 100,"COc1nc(Nc2cc(C)cc(-c3cnc(C4(O)CCCN(C(=O)c5cnn[nH]5)CC4)s3)c2)ncc1Cl (single isomer, unassigned) [Example 54D-32]"
3,< 100,Cc1cc(Nc2ncc(F)c(C)n2)cc(-c2cnc(C3(O)CCN(C(N)=O)C3)s2)c1 (stereo not drawn) [Example 54B-16]
4,< 100,Cc1cc(Nc2nccc(C(F)(F)F)n2)cc(-c2cnc(C3(O)CCN(C(=O)CC(=O)O)CC3)s2)c1 [Example 54A-26]
5,< 100,Cc1cc(Nc2nccc(C(F)(F)F)n2)cc(-c2cnc(C3(O)CCCN(C(=O)CCn4cncn4)CC3)s2)c1 (racemic) [Example 54D-89]
6,< 100,Cc1cc(Nc2nccc(C(F)(F)F)n2)cc(-c2cnc(C3(O)CCCN(C(=O)c4ccc(O)c(F)c4)CC3)s2)c1 (racemic) [Example 54D-103]

# Further lines, the compound ahead of its results:
row,Structure (SMILES),IC50 [nM]
1,COC(=O)NS(=O)(=O)N1CCC(O)(c2ncc(-c3cc(C)cc(Nc4nccc(OC)n4)c3)s2)CC1 [Example 54A-18],< 100
2,Cc1cc(Nc2nccc(C(F)(F)F)n2)cc(-c2cnc(C3(O)CCN(C4CC=C(C(=O)O)CC4)C3)s2)c1 (stereo not drawn) [Example 54B-33],< 100
3,Cc1cc(Nc2nccc(C(F)(F)F)n2)cc(-c2cnc(C3(O)CCCN(CC(=O)OC(C)(C)C)CC3)s2)c1 (stereo not drawn) [Example 54A-89],< 100
4,Cc1cc(Nc2nccc(C(F)(F)F)n2)cc(-c2cnc(C3(O)CCCN(CC(=O)O)CC3)s2)c1 (stereo not drawn) [Example 54A-83],100 to 1000
5,"Cc1cc(Nc2nccc(C(F)(F)F)n2)cc(-c2cnc(C3(O)CCCN(CC(F)(F)F)CC3)s2)c1 (single isomer, unassigned) [Example 54A-85]",< 100

# Same assay, conditions: read-out: rhSYK activity
row,IC50 [nM],Structure (SMILES)
1,< 100,CCCSc1ccnc(Nc2cc(C)cc(-c3cnc(C4(O)CCC4)s3)c2)n1 [Example 108A-42]
2,< 100,Cc1cc(Nc2nccc(OCCC3CCCN3C)n2)cc(-c2cnc(C3(O)CCC3)s2)c1 (stereo not drawn) [Example 108A-17]
3,< 100,Cc1cc(Nc2nccc(OC3CCNCC3)n2)cc(-c2cnc(C3(NC(N)=O)CCC3)s2)c1 [Example 64-5]

# From patent publication US8759366B2, “Aminopyrimidines as SYK inhibitors” (Merck Sharp & Dohme Corp., priority 2009, dated 2014)
